Measured values published in patent publication EP3714904B1, “IMINODIACETIC ACID SUBSTITUTED CYCLODEXTRINS AS POTENTIATORS OF BETA-LACTAM ANTIBIOTICS” (NATIONAL CENTER FOR SCIENTIFIC RESEARCH "DEMOKRITOS" (NCSRD), priority 2019, dated 2020).

What was measured:
[1] = tested on: MBL producing clinical strains; test: MIC potentiation over the whole collection of isolates; assay type: cell-based; settings: 50 µM β-IDACYD
Protocol: Further the in-vitro inhibitory activity of IDACYDs was tested against highly resistant pathogens. Tables 3, 4 and 5 show the effect of IDACYDs using a collection of 36 highly resistant Gram negative strains (Table 2, Kirby-Bauer disc diffusion method) producing NDM, VIM and IMP type MBLs as well as 6 isolates expressing serine beta-lactamases (ESBLs, AmpCs). […] Clinical isolates co-expressing ESBLs and/or AmpC β-lactamases along with MBLs where re-sensitized to both imipenem and meropenem, as expected. Table 2: Collection of clinical isolates used for in-vitro evaluation

[2] = assay type: in vivo; settings: dosing schemes up to 500 mg/kg
Protocol: The acute in-vivo toxicity of β-IDACYD was also determined to provide range-finding doses to be used in in-vivo studies and possibly implicate target organs for toxicity.

[3] = tested on: VIM-1 producing K. pneumoniae SEC-4; test: Neutropenic murine thigh infection model; assay type: in vivo, CD-1 mice; settings: 30 mg/kg imipenem + 10 mg/kg β-IDACYD intravenously, 2 h intervals for 24 hours
Protocol: Example 6. In-vivo murine thigh infection model: A murine thigh infection model was utilized based on the biodistribution results. In a neutropenic mouse thigh infection model was administered intravenously a therapeutic scheme of either 30 mg/kg imipenem or 30 mg/kg imipenem co-administered with 10 mg/kg β-IDACYD in 2 h intervals for 24 hours. At the end of the treatment the bacterial burden of the thigh was reduced by 0.5 log10 in the presence of 10 mg/kg β-IDACYD compared to that of the antibiotic monotherapy.
Twenty, 10 weeks old female (CD-1) mice were rendered neutropenic by administration of two doses of cyclophosphamide (150 mg/kg and 100 mg/kg per mouse on days -4 and -1, respectively). On day 0, all mice were challenged with 0.1 mL of a 10^7 CFU/mL of VIM-1 producing K. pneumoniae SEC-4 by intramuscular injection in the right thigh. From the six mice in the control group that were treated with normal saline (Group A), two mice were sacrificed 2 hours post inoculation while the other mice in groups of seven mice each were intravenously treated with 30 mg/kg imipenem (Group B) or 30 mg/kg imipenem along with 10 mg/kg β-IDACYD (Group C) at 2 hour intervals for 24 hours. At 6-hours post inoculation two mice of group 1 as well as three mice of each of groups 2 and 3 were sacrificed and their thighs were aseptically removed. […]

[4] = Plasma levels of metal ions, creatinine and urea in infected mice; assay type: in vivo, CD-1 mice; settings: 30 mg/kg meropenem + 20 mg/kg β-IDACYD every 2 h for 24 h, 0 h, 6 h, 140 h
Protocol: Example 10. Examination of the cross-reactivity of β-IDACYD with vital metal ions in mouse plasma and of induction of immune responses in infected mice: In order to examine a potential cross-reactivity of the β-IDACYD with metal ions necessary for the maintenance of homeostasis, plasma was isolated by centrifugation (3,000 rpm, 5 min) from all blood samples collected. The plasma levels of four metal ions (calcium, magnesium, phosphate and iron) as well as the levels of creatinine and urea were determined using an Olympus AU 600 analyser. […] In Fig. 8 is shown the plasma concentration in mg/dL of calcium, iron, phosphate and magnesium ions, as well as urea and creatinine derived from CD-1 mice infected with a lethal dose (10^7 CFU) of NDM-1 producing K. pneumoniae strain LA26. […] Treatment was given every 2h for a 24h period and blood was drawn and plasma was isolated at time points 0h, 6h, 24h and 140h (7d) post treatment initiation.

[5] = Luminex assay of lymphokines, cytokines and pro-inflammatory proteins in plasma of infected mice; assay type: in vivo; settings: plasma from all the sepsis therapeutic schemes
From the text: As a way to further measure and evaluate the in-vivo potency and safety of β-IDACYD, we determined the levels of a series of lymphokines, cytokines, and pro-inflammatory indicator proteins. The levels of Th17 immune response related ILs 17E, 6, 1β, 4, 21, 10, 17A, 17F, IFN-g, MIP-3a, TNF-a and TNF-b were all determined in a luminex assay using plasma isolated from the mice involved in all the sepsis therapeutic schemes. […] The observation was supported by the levels of the inflammatory response proteins CRP and SAP.

CO[C@@H]1[C@@H](OC)[C@H]2O[C@H]3[C@H](OC)[C@@H](OC)[C@@H](O[C@H]4[C@H](OC)[C@@H](OC)[C@@H](O[C@H]5[C@H](OC)[C@@H](OC)[C@@H](O[C@H]6[C@H](OC)[C@@H](OC)[C@@H](O[C@H]7[C@H](OC)[C@@H](OC)[C@@H](O[C@H]8[C@H](OC)[C@@H](OC)[C@@H](O[C@@H]1[C@@H](CN(CC(=O)O)CC(=O)O)O2)O[C@@H]8CN(CC(=O)O)CC(=O)O)O[C@@H]7CN(CC(=O)O)CC(=O)O)O[C@@H]6CN(CC(=O)O)CC(=O)O)O[C@@H]5CN(CC(=O)O)CC(=O)O)O[C@@H]4CN(CC(=O)O)CC(=O)O)O[C@@H]3CN(CC(=O)O)CC(=O)O [β-IDACYD]
reduction of meropenem's and imipenem's minimum inhibitory concentration (MIC) [1]: up to 256 fold
acute in-vivo toxicity [2]: no deaths and no signs indicative of acute toxicity
reduction of bacterial burden of the thigh compared to antibiotic monotherapy [3]: 0.5 log10
plasma levels of calcium, magnesium, phosphate, iron, creatinine and urea [4]: well within the control group range at all times
immune response (Th17 related ILs, IFN-g, MIP-3a, TNF-a, TNF-b; CRP, SAP) [5]: at no times induced an immune response
